Measured values taken from patent US20100216779A1 (GLAXOSMITHKLINE LLC, priority 2007, published 2010).

System: various cell lines of different tumor origins
Assay: Inhibition of cell proliferation, InCell Analyzer assay
Assay type: cell-based
Experimental: C. Inhibition of Cell Proliferation
For InCell Analyser assay, various cell lines of different tumor origins were grown to 70-80% confluency in appropriate culture media containing 10% fetal bovine serum at 37° C. in a 5% CO2 incubator. On day-1, cells were seeded at 2 densities in 384-well plates and incubated at 37° C. overnight. Stock compound plates were prepared in advance which contained dimethyl sulfoxide (DMSO) alone and a 9-point half-log decreasing dose range of the compound of Example 22 in DMSO. The compound plates were stored at −80° C. and each plate was only thawed once and used. On day 0, the main assay plates received compound or DMSO via a sonic delivery system (ECHO). The highest final concentration of compound of the dose range in the culture plates was 10 uM. These plates were cultured at 37° C. for 3 days. […] On day 3, the compound treated plates were stained and fixed to measure proliferation, apoptosis, and mitotic index using an InCell1000 analyser. A nuclear stain was used to identify cells in the wells. By counting the number of nuclei, the proliferation index of compound treated groups were calculated as a percentage relative to the DMSO control, which was set to 100%. The IC50 values were calculated using model 205 in ExcelFit.

COc1cc(N2CCC(N3CCCCC3)CC2)ccc1Nc1nccc(-c2c(-c3cccc(C(=O)Nc4c(F)cccc4F)c3)nc3ccccn23)n1 [Example 22, 3-[3-(2-{[4-(1,4′-bipiperidin-1′-yl)-2-(methyloxy)phenyl]amino}-4-pyrimidinyl)imidazo[1,2-a]pyridin-2-yl]-N-(2,6-difluorophenyl)benzamide]
IC50 (Homo sapiens, NCI-H292, NCI-H292, Lung): 1 to 5 µM
IC50 (Homo sapiens, NCI-H295R, Cervix): > 5 µM
IC50 (Homo sapiens, NCI-H358, NCI-H358, Lung): < 1 µM
IC50 (Homo sapiens, NCI-H460, NCI-H460, Lung): 1 to 5 µM
IC50 (Homo sapiens, NCI-H520, NCI-H520, Lung): 1 to 5 µM
IC50 (Homo sapiens, NCI-H522, NCI-H522, Lung): 1 to 5 µM
IC50 (Homo sapiens, NCI-H526, NCI-H526, Lung): < 1 µM
IC50 (Homo sapiens, NCI-H596, NCI-H596, Lung): > 5 µM
IC50 (Homo sapiens, NCI-H630, NCI-H630, Rectum): < 1 µM
IC50 (Homo sapiens, NCI-H661, NCI-H661, Lung): 1 to 5 µM
IC50 (Homo sapiens, NCI-H716, NCI-H716, Colon): < 1 µM
IC50 (Homo sapiens, NCI-H727, NCI-H727, Lung): 1 to 5 µM
IC50 (Homo sapiens, NCI-H747, NCI-H747, Colon): 1 to 5 µM
IC50 (Homo sapiens, NCI-H1395, NCI-H1395, Lung): > 5 µM
IC50 (Homo sapiens, NCI-H2087, NCI-H2087, Lung): > 5 µM
IC50 (Homo sapiens, NCI-N87, NCI-N87, Stomach): < 1 µM
IC50 (Homo sapiens, NCI/ADR-RES, Breast): 1 to 5 µM
IC50 (Homo sapiens, OV-90, OV-90, Ovary): > 5 µM
IC50 (Homo sapiens, OVCAR-3, OVCAR-3, Ovary): > 5 µM
IC50 (Homo sapiens, OVCAR-4, OVCAR-4, Ovary): 1 to 5 µM
IC50 (Homo sapiens, OVCAR-5, OVCAR-5, Ovary): < 1 µM
IC50 (Homo sapiens, OVCAR-8, OVCAR-8, Ovary): 1 to 5 µM
IC50 (Homo sapiens, RL95-2, RL95-2, Uterus): 1 to 5 µM
IC50 (Homo sapiens, RPMI-2650, RPMI2650, H&N): 1 to 5 µM
IC50 (Homo sapiens, RPMI-6666, RPMI6666, lymphoma - Hodgkin): 1 to 5 µM
IC50 (Homo sapiens, RPMI-8226, RPMI8226, Myeloma): < 1 µM
IC50 (Homo sapiens, RWPE-1, RWPE-1, Prostate): < 1 µM
IC50 (Homo sapiens, RXF 393, RXF393, Kidney): 1 to 5 µM
IC50 (Homo sapiens, Raji, lymphoma - Burkitt): 1 to 5 µM
IC50 (Homo sapiens, SAOS-2, SaOS-2, Sarcoma): < 1 µM
IC50 (Homo sapiens, SCC-4, SCC-4, H&N): 1 to 5 µM
IC50 (Homo sapiens, SCC-9, SCC-9, H&N): > 5 µM
IC50 (Homo sapiens, SCC-15, SCC-15, H&N): > 5 µM
IC50 (Homo sapiens, SCC-25, SCC-25, H&N): < 1 µM
IC50 (Homo sapiens, SCaBER, Bladder): 1 to 5 µM
IC50 (Homo sapiens, SF-268, SF-268, glioma): 1 to 5 µM
IC50 (Homo sapiens, SF-295, SF-295, glioma): > 5 µM
IC50 (Homo sapiens, SF-539, SF-539, glioma): > 5 µM
IC50 (Homo sapiens, SHP77, SHP-77, Lung): 1 to 5 µM
IC50 (Homo sapiens, SJRH30, SJRH30, Sarcoma - rhabdomyosarcoma): < 1 µM
IC50 (Homo sapiens, SK-BR-3, SK-BR-3, Breast): 1 to 5 µM
IC50 (Homo sapiens, SK-LMS-1, SK-LM-S1, Sarcoma): 1 to 5 µM
IC50 (Homo sapiens, SK-MEL3, SK-MEL-3, Skin): > 5 µM
IC50 (Homo sapiens, SK-MEL-1, SK-MEL-1, Skin): > 5 µM
IC50 (Homo sapiens, SK-MEL-28, SK-MEL-28, Skin): 1 to 5 µM
IC50 (Homo sapiens, SK-N-AS, neuroblastoma): 1 to 5 µM
IC50 (Homo sapiens, SK-N-DZ, neuroblastoma): 1 to 5 µM
IC50 (Homo sapiens, SK-N-FI, neuroblastoma): < 1 µM
IC50 (Homo sapiens, SK-NEP-1, SK-NEP-1, Kidney): > 5 µM
IC50 (Homo sapiens, SK-OV-3, SK-OV-3, Ovary): > 5 µM
IC50 (Homo sapiens, SK-UT-1, SK-UT-1, Sarcoma): 1 to 5 µM
IC50 (Homo sapiens, SN12C, Kidney): 1 to 5 µM
IC50 (Homo sapiens, SNB-19, SNB-19, glioma): > 5 µM
IC50 (Homo sapiens, SNB-75, SNB-75, glioma): > 5 µM
IC50 (Homo sapiens, SNU1, SNU-1, Stomach): > 5 µM
IC50 (Homo sapiens, SNU-5, SNU-5, Stomach): > 5 µM
IC50 (Homo sapiens, SNU-16, SNU-16, Stomach): > 5 µM
IC50 (Homo sapiens, SNU-182, SNU-182, Liver): 1 to 5 µM
IC50 (Homo sapiens, SNU-387, SNU-387, Liver): 1 to 5 µM
IC50 (Homo sapiens, SNU-398, SNU-398, Liver): 1 to 5 µM
IC50 (Homo sapiens, SNU-423, SNU-423, Liver): 1 to 5 µM
IC50 (Homo sapiens, SNU-449, SNU-449, Liver): > 5 µM
IC50 (Homo sapiens, SNU-475, SNU-475, Liver): 1 to 5 µM
IC50 (Homo sapiens, ST486, ST486, lymphoma - Burkitt): 1 to 5 µM
IC50 (Homo sapiens, SW48, SW48, Colon): < 1 µM
IC50 (Homo sapiens, SW480, SW480, Colon): 1 to 5 µM
IC50 (Homo sapiens, SW684, SW684, Sarcoma): > 5 µM
IC50 (Homo sapiens, SW756, SW756, Cervix): 1 to 5 µM
IC50 (Homo sapiens, SW780, SW780, Bladder): > 5 µM
IC50 (Homo sapiens, SW837, SW837, Colon): > 5 µM
IC50 (Homo sapiens, SW872, SW872, Sarcoma): 1 to 5 µM
IC50 (Homo sapiens, SW948, SW948, Colon): > 5 µM
IC50 (Homo sapiens, SW 954, SW954, Vulva): < 1 µM
IC50 (Homo sapiens, SW 962, SW962, Vulva): < 1 µM
IC50 (Homo sapiens, SW982, SW982, Sarcoma): > 5 µM
IC50 (Homo sapiens, SW1088, SW1088, glioma): 1 to 5 µM
IC50 (Homo sapiens, SW 1116, SW1116, Colon): > 5 µM
IC50 (Homo sapiens, SW1353, SW1353, Sarcoma): > 5 µM
IC50 (Homo sapiens, SW1417, SW1417, Colon): < 1 µM
IC50 (Homo sapiens, SW1463, SW1463, Rectum): < 1 µM
IC50 (Homo sapiens, SW1783, SW1783, glioma): > 5 µM
IC50 (Homo sapiens, SW1990, SW1990, Pancreas): 1 to 5 µM
IC50 (Homo sapiens, SW-403, SW403, Colon): < 1 µM
IC50 (Homo sapiens, SW-620, SW620, Colon): 1 to 5 µM
IC50 (Homo sapiens, SiHa, Cervix): 1 to 5 µM
IC50 (Homo sapiens, T47D, T-47D, Breast): 1 to 5 µM
IC50 (Homo sapiens, THP-1, THP-1, AML): 1 to 5 µM
IC50 (Homo sapiens, TK-10, TK-10, Kidney): 1 to 5 µM
IC50 (Homo sapiens, U2OS, U-2OS, Sarcoma): 1 to 5 µM
IC50 (Homo sapiens, U138-MG, U-138MG, glioma): > 5 µM
IC50 (Homo sapiens, U-87 MG, glioma): > 5 µM
IC50 (Homo sapiens, U-251, U251, glioma): 1 to 5 µM
IC50 (Homo sapiens, UACC-62, UACC-62, Skin): 1 to 5 µM
IC50 (Homo sapiens, UACC-257, UACC-257, Skin): 1 to 5 µM
IC50 (Homo sapiens, UACC-812, UACC-812, Breast): > 5 µM
IC50 (Homo sapiens, UMUC3, UM-UC-3, Bladder): > 5 µM
IC50 (Homo sapiens, UO-31, UO-31, Kidney): 1 to 5 µM
IC50 (Homo sapiens, WM-115, WM115, Skin): > 5 µM
IC50 (Homo sapiens, YAPC, Pancreas): > 5 µM
IC50 (Homo sapiens, ZR-75-1, ZR-75-1, Breast): > 5 µM
IC50 (J82, Bladder): 1 to 5 µM
IC50 (JAR, Placenta): 1 to 5 µM
IC50 (KHOS-240S, Sarcoma): 1 to 5 µM
IC50 (KLE, Uterus): 1 to 5 µM
IC50 (KPL-1, KPL-1, Breast): 1 to 5 µM
IC50 (M14, Skin): 1 to 5 µM
IC50 (MC-CAR, #N/A): 1 to 5 µM
IC50 (ML-2, AML): > 5 µM
IC50 (MT-3, Breast): < 1 µM
IC50 (MX-1, Breast): 1 to 5 µM
IC50 (NALM-1, CML blast phase): 1 to 5 µM
IC50 (NCI-H322, NCI-H322, Lung): < 1 µM
IC50 (NCI-H660, NCI-H660, Prostate): > 5 µM
IC50 (RD, Sarcoma - rhabdomyosarcoma): > 5 µM
IC50 (RD-ES, Sarcoma): < 1 µM
IC50 (RL, lymphoma - non-Hodgkin): 1 to 5 µM
IC50 (SCC12, SCC-12, H&N): > 5 µM
IC50 (SCC-13, SCC-13, H&N): > 5 µM
IC50 (SCLC-3, Lung): 1 to 5 µM
IC50 (SH-4, Skin): 1 to 5 µM
IC50 (SKO-007, SKO-007, Myeloma): 1 to 5 µM
IC50 (SR, lymphoma - large cell immunoblastic): 1 to 5 µM
IC50 (SW579, SW579, Thyroid): 1 to 5 µM
IC50 (T24, Bladder): > 5 µM
IC50 (T-cell, MJ, lymphoma - cutaneous T cell): 1 to 5 µM
IC50 (TE 381.T, TE381.T, Sarcoma - rhabdomyosarcoma): < 1 µM
IC50 (TO 175.T, TO175.T, Skin): 1 to 5 µM
IC50 (U266B1, Myeloma): 1 to 5 µM
IC50 (Y79, Eye): > 5 µM
